Results taken from PMC5342759, “An inhibitor of cholesterol absorption displays anti-myeloma activity by targeting the JAK2-STAT3 signaling pathway” (Oncotarget, 2016).

How the values were obtained:
Assay in all cases: HotSpot radiometric kinase assay, purified recombinant human kinase, 10-dose IC50
Format in all cases: biochemical
JAK3 = target: T1, JAK3 (Homo sapiens, UniProt P52333)
T1 sequence (P52333 1-1124): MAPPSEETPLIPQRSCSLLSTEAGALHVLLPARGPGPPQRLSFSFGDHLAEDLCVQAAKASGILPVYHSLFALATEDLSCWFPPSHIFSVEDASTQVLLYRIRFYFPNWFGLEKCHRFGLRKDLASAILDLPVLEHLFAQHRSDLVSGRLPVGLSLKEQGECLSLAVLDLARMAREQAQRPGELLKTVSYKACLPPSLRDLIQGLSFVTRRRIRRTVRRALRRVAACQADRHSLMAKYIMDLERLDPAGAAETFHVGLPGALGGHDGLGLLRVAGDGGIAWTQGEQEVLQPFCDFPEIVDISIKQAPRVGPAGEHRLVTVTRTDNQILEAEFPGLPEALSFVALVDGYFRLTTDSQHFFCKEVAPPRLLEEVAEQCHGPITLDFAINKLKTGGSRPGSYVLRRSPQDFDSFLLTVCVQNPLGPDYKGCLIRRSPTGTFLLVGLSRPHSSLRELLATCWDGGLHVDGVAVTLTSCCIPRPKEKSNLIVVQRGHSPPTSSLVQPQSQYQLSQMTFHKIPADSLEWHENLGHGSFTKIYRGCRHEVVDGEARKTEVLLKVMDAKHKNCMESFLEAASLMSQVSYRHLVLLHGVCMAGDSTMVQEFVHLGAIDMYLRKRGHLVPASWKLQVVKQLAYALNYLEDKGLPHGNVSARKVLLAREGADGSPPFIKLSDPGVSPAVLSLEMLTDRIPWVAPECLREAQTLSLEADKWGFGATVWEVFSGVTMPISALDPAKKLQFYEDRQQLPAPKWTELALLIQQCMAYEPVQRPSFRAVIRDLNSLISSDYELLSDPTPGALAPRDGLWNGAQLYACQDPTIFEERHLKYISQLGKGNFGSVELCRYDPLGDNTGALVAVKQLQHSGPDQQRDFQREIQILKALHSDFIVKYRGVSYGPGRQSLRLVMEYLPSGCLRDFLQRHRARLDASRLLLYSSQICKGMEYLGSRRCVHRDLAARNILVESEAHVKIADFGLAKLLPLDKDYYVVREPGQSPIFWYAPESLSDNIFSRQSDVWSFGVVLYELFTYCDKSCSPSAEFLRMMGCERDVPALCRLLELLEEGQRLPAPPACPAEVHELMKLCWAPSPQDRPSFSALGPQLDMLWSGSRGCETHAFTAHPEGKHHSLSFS

JAK2 = JAK2 (Homo sapiens, UniProt O60674)
Chain of JAK2 (O60674 whole entry): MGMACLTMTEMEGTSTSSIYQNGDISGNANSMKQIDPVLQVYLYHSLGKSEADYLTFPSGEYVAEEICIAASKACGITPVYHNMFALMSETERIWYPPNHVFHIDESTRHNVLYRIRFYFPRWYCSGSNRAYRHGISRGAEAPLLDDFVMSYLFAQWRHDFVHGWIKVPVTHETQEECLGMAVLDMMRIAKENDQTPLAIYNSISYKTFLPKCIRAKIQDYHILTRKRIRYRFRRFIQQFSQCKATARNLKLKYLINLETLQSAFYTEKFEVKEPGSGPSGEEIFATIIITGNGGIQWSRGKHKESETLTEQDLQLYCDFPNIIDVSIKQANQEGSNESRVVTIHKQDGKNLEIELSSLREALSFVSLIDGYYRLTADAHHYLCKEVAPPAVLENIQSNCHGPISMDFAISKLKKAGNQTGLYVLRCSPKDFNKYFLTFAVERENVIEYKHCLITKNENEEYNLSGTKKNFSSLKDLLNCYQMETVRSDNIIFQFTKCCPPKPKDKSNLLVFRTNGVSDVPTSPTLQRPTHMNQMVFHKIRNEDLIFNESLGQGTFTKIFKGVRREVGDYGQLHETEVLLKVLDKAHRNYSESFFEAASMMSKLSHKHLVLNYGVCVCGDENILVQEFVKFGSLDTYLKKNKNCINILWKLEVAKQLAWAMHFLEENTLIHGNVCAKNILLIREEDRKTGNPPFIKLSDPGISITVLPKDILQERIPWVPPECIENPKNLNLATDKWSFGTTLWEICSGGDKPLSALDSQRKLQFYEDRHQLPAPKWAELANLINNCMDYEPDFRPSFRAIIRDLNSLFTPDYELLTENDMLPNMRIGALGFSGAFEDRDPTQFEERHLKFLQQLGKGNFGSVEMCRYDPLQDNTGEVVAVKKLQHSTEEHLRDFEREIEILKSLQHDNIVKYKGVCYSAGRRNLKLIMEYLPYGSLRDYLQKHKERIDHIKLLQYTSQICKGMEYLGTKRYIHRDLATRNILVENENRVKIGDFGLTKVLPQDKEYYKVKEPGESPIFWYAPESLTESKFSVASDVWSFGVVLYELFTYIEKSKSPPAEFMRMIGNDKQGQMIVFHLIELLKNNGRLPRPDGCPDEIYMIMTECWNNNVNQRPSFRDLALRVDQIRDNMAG

JAK1 = JAK1 (Homo sapiens, UniProt P23458)
Chain of JAK1 (P23458 whole entry): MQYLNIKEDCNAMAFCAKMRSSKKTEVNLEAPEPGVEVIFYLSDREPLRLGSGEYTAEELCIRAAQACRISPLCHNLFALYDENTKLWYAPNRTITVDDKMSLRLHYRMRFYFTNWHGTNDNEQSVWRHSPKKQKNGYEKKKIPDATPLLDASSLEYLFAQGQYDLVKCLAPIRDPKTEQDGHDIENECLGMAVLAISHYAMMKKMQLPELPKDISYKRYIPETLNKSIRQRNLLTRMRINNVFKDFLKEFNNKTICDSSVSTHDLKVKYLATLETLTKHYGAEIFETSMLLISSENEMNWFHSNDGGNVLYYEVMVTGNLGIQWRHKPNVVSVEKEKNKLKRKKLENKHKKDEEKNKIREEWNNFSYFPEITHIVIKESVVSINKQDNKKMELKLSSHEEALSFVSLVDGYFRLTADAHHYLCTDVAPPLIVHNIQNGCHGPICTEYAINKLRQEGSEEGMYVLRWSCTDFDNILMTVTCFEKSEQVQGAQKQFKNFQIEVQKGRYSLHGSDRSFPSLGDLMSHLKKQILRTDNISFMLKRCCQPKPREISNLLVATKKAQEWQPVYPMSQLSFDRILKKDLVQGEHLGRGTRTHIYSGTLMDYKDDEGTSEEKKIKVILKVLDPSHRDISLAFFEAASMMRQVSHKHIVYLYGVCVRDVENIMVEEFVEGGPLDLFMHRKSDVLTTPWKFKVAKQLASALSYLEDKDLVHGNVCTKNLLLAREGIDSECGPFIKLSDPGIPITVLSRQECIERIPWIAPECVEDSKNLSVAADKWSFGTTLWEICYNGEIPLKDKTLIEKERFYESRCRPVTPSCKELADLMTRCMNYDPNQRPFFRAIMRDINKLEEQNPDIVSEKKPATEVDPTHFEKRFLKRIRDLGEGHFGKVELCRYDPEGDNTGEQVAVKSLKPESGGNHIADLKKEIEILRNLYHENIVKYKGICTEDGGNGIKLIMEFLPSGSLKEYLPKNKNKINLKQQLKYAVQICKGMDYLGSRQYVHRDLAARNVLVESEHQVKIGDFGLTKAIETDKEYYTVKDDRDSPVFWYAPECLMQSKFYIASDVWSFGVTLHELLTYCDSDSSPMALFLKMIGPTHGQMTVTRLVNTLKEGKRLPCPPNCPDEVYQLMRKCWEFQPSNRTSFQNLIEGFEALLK

TYK2 = TYK2 (Homo sapiens, UniProt P29597)
Chain of TYK2 (P29597 whole entry): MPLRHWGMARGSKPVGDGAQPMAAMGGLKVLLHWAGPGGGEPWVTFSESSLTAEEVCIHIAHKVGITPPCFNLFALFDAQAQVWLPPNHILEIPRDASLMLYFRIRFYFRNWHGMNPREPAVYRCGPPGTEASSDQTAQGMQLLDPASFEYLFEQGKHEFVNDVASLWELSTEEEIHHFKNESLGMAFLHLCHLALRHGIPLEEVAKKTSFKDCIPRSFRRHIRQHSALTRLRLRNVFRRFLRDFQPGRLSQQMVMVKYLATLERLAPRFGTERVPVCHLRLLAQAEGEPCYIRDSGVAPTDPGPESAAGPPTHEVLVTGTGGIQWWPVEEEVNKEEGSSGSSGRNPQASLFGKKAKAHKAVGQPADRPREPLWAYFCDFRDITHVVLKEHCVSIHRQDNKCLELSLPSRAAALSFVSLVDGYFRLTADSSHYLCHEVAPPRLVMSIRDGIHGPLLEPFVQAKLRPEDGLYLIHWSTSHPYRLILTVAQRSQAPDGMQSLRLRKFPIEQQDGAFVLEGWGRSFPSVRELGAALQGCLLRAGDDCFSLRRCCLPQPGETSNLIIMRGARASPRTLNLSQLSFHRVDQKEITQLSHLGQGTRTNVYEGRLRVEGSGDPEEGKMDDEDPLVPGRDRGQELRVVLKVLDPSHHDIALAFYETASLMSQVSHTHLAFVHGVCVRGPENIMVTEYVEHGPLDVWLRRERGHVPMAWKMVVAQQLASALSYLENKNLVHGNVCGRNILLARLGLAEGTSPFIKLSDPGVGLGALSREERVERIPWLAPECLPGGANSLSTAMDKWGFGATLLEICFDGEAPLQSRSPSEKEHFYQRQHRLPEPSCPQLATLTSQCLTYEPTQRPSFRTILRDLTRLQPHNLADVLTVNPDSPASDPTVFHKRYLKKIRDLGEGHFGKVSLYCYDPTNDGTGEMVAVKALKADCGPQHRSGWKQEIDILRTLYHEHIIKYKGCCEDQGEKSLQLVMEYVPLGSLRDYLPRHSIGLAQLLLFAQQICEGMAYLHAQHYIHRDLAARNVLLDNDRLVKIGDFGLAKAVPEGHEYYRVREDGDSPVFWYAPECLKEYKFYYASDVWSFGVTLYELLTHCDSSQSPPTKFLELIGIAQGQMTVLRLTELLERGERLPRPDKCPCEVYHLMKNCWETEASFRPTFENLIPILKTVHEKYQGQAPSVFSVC

N#C/C(=N\Nc1ccc(C(F)(F)F)cc1)S(=O)(=O)c1cccs1 [SC09]
IC50 (JAK3): 139 µM
IC50 (JAK2): 8.88 µM
IC50 (JAK1): 153 µM
IC50 (TYK2): 111 µM
